Like-named read-outs stand apart in the source and are kept apart here.
Columns and labels:
parental HEK cells = test: HEK parental Agonist Counterscreen Assay (non-transfected cells); type: cell-based; conditions: for Averaged Max % Response (±St. Dev.): activity relative to known control
Source text: The high control for the agonist counterscreen was Forskolin not acetylcholine.

GPR139 = biological target: T1, GPR139 (Homo sapiens, UniProt Q6DWJ6); test: GPR139 Agonist titration / agonist counterscreen assay (calcium detection, HEK-GPR139 cells); type: cell-based; parameters: expressed in transfected cells; host or cells: HEK Aequorin cells, Maxcyte transient transfection; conditions: GPR139 Agonist Activity; for Averaged Max % Response (±St. Dev.): activity relative to known control; for EC50: read-out: EC50
T1 sequence (Q6DWJ6 1-353): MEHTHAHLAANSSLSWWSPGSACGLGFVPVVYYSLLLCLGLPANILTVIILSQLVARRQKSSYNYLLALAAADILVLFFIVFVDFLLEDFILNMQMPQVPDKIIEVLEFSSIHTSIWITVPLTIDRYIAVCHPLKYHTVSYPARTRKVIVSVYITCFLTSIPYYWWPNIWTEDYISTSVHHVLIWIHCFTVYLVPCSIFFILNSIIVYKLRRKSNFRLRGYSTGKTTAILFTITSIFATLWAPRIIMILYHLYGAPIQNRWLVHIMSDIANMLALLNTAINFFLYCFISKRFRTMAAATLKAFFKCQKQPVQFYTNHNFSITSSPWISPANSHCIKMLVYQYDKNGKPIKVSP
Method: GPR activity was assessed using a calcium detection assay. […] Negative control samples were treated with DMSO. […] Intracellular calcium was measured using Calcium 5.

[1] = Homo sapiens, HEK293, HEK Agonist Activity section of Table 4 (parental HEK counterscreen)
[2] = values printed in E-notation without unit
[3] = HEK Agonist Activity section of Table 4 (parental HEK counterscreen)
[4] = Homo sapiens, HEK293, HEK Agonist Activity, parental non-transfected HEK cells

Row | SMILES | Lipophilic Efficiency (logD) (parental HEK cells; HEK Agonist Activity section) | Lipophilic Efficiency (logP) (parental HEK cells; HEK Agonist Activity section) | Averaged Max % Response (±St. Dev.) (GPR139) [%] | Lipophilic Efficiency (logD) (GPR139; based on logD) | Lipophilic Efficiency (logP) (GPR139; based on logP) | Hill Slope (GPR139; fitted dose-response curve) | Efficiency Ligand (GPR139; ligand efficiency) | EC50 (GPR139; [2]) [µM] | Efficiency Ligand (GPR139) | Hill Slope (GPR139) | Lipophilic Efficiency (logD) (GPR139) | Lipophilic Efficiency (logP) (GPR139) | Averaged Max % Response (±St. Dev.) (parental HEK cells; HEK Agonist Activity section) [%] | EC50 (parental HEK cells; [1]) [µM] | further results
1 | CC1(c2ccc3c(c2)OCCO3)NC(=O)C(CC(=O)NCC2CCCCC2)C1=O (stereo not shown) [SR-01000074761] | 3.15 | 3.15 | 95.96 ± 3.33 | 5.32 | 5.32 | 0.92 | 0.34 | 0.103 | – | – | – | – | 13.40 ± 6.99 | > 15.4 | –
2 | CCCCCc1cc(C2=CCC=C2)ccc1CC(=O)C1CCc2ccccc2C1 (stereo not shown) [SR-00000004451] | 4.36 | 2.31 | 92.93 ± 0.53 | 6.38 | 4.33 | 0.70 | 0.33 | – | – | – | – | – | 3.04 ± 3.40 | > 14.1 | –
3 | C=C(CC1C=CC2=C1c1ccccc1CC2)Nc1ccc(CC)cc1 (stereo not shown) [SR-01000098976] | 2.53 | 2.53 | 103.10 ± 11.12 | 4.60 | 4.60 | 0.87 | 0.39 | – | – | – | – | – | 25.21 ± 6.04 | > 14.1 | –
4 | O=C(CSc1ccc(Cl)cc1)Nc1nnc(-c2ccc(F)cc2)o1 [SR-01000021435] | 1.22 | 1.22 | 162.60 ± 13.73 | 3.60 | 3.60 | – | 0.42 | > 0.0574 | – | – | – | – | 24.48 ± 11.03 | – | EC50 (parental HEK cells; [3]): > 13.9 µM
5 | O=C(CN1CCN(Cc2ccccc2F)C1=O)NCCc1ccc(Cl)cc1 [SR-01000125584] | 2.11 | 2.11 | 103.06 ± 30.95 | 4.59 | 4.59 | 0.81 | 0.38 | 0.0471 | – | – | – | – | 0.37 ± 17.31 | > 14.1 | –
6 | CN1CCC(Oc2cc(-c3cn[nH]c3)ccc2NC(=O)C2COc3ccc(F)cc3C2)C1 (stereo not shown) [SR-00000006339] | – | – | 103.42 ± 7.86 | 6.10 | 5.03 | 0.54 | 0.35 | 0.009 | – | – | – | – | – | – | Lipophilic Efficiency (logD) (parental HEK cells; HEK Agonist Activity): 2.91; Lipophilic Efficiency (logP) (parental HEK cells; HEK Agonist Activity): 1.83; Averaged Max % Response (±St. Dev.) (parental HEK cells; HEK Agonist Activity): 5.16 ± 8.02%; EC50 (parental HEK cells; [4]): > 14.1 µM
7 | Cl.Cl.Nc1[nH]ncc1-c1ccc(NC(=O)[C@H](N)Cc2cccc(F)c2)cc1 [SR-00000004378] | 3.65 | 2.98 | 72.99 ± 14.39 | – | – | – | – | – | 0.34 | 0.72 | 4.84 | 4.17 | −19.97 ± 10.80 | – | EC50 (parental HEK cells; [3]): > 14.1 µM; EC50 (GPR139; HEK-GPR139 cells): 0.914 µM
8 | Cc1cccc(CCNC(=O)c2c[nH]c3cc(-c4cn[nH]c4)ccc23)c1 [SR-00000007279] | – | – | 142.11 ± 3.85 | 4.81 | 4.80 | 0.18 | 0.38 | 0.0431 | – | – | – | – | – | – | Lipophilic Efficiency (logD) (parental HEK cells; HEK Agonist Activity): 2.30; Lipophilic Efficiency (logP) (parental HEK cells; HEK Agonist Activity): 2.29; Averaged Max % Response (±St. Dev.) (parental HEK cells; HEK Agonist Activity): 17.20 ± 7.85%; EC50 (parental HEK cells; [4]): > 14.1 µM
9 | COc1ccc(Cl)cc1C(=O)NNC(=O)CCc1ccc([N+](=O)[O-])cc1 [SR-01000054340] | 2.25 | 2.23 | 96.13 ± 10.69 | – | – | – | – | – | 0.33 | 0.74 | 3.45 | 3.43 | 20.66 ± 8.49 | > 14.2 | –

Now from value to compound, other results behind:

Row | Lipophilic Efficiency (logD) (parental HEK cells; HEK Agonist Activity section) | Lipophilic Efficiency (logP) (parental HEK cells; HEK Agonist Activity section) | Averaged Max % Response (±St. Dev.) (GPR139) [%] | Lipophilic Efficiency (logD) (GPR139; based on logD) | Lipophilic Efficiency (logP) (GPR139; based on logP) | Hill Slope (GPR139; fitted dose-response curve) | Efficiency Ligand (GPR139; ligand efficiency) | EC50 (GPR139; [2]) [µM] | Efficiency Ligand (GPR139) | Hill Slope (GPR139) | Lipophilic Efficiency (logD) (GPR139) | Lipophilic Efficiency (logP) (GPR139) | SMILES | Averaged Max % Response (±St. Dev.) (parental HEK cells; HEK Agonist Activity section) [%] | EC50 (parental HEK cells; [1]) [µM] | further results
10 | 2.49 | 2.49 | 96.01 ± 17.34 | 4.77 | 4.77 | 0.99 | 0.42 | 0.073 | – | – | – | – | Cc1cccnc1NC(=O)Cn1ncc2c1-c1ccccc1OC2 [SR-01000152365] | 18.44 ± 8.07 | – | EC50 (parental HEK cells; [3]): > 14.1 µM
11 | – | – | 114.94 ± 7.97 | 6.86 | 6.86 | 0.54 | 0.52 | 0.0013 | – | – | – | – | CC(C(=O)NCCc1ccc(Cl)cc1)n1ncn2cccc2c1=O (stereo not shown) [SR-01000140260] | – | – | Lipophilic Efficiency (logD) (parental HEK cells; HEK Agonist Activity): 2.84; Lipophilic Efficiency (logP) (parental HEK cells; HEK Agonist Activity): 2.84; Averaged Max % Response (±St. Dev.) (parental HEK cells; HEK Agonist Activity): 19.72 ± 7.61%; EC50 (parental HEK cells; HEK Agonist Activity, parental non-transfected HEK cells): > 14.1 µM
12 | 2.02 | 2.02 | 112.57 ± 11.99 | 4.37 | 4.37 | 1.05 | 0.46 | 0.0638 | – | – | – | – | O=C(NC1CC1)C1CC(Cc2cccc3ccccc23)=NO1 (stereo not shown) [SR-01000188699] | 4.63 ± 6.30 | > 14.1 | –
13 | −0.610 | −0.614 | 87.84 ± 4.08 | – | – | – | – | – | 0.39 | 0.44 | 0.98 | 0.98 | CC(C)(C)c1cn2cccc(OCc3ccc(Cl)c(Cl)c3)c2n1 [SR-07000004609] | −5.59 ± 4.81 | > 14.1 | EC50 (GPR139; HEK-GPR139 cells): 0.358 µM
14 | – | – | 106.05 ± 9.09 | 4.30 | 4.27 | 0.91 | 0.43 | 0.023 | – | – | – | – | COc1ccccc1C(=O)NNC(=O)C(C)Oc1ccc(Cl)cc1Cl (stereo not shown) [SR-01000356020] | – | – | Lipophilic Efficiency (logD) (parental HEK cells; HEK Agonist Activity): 1.52; Lipophilic Efficiency (logP) (parental HEK cells; HEK Agonist Activity): 1.48; Averaged Max % Response (±St. Dev.) (parental HEK cells; HEK Agonist Activity): 1.37 ± 3.30%; EC50 (parental HEK cells; [4]): > 14.1 µM
15 | 0.80 | 0.80 | 96.78 ± 10.47 | – | – | – | – | – | 0.28 | – | 1.75 | 1.75 | Cc1cccc(-n2cnc3cc(C(=O)NCc4ccc5c(c4)OCO5)ccc32)c1 [SR-01000579592] | −14.67 ± 10.75 | > 13.3 | EC50 (GPR139; HEK-GPR139 cells): > 1.5 µM
16 | 2.93 | 2.93 | 117.27 ± 2.34 | – | – | – | – | – | 0.27 | 0.38 | 4.47 | 4.47 | CC12C=CC3(CN(Cc4ccccc4)C(=O)C3C1C(=O)NCC1COc3ccccc3O1)O2 (stereo not shown) [SR-01000582967] | −6.63 ± 2.99 | – | EC50 (parental HEK cells; [3]): > 13.1 µM; EC50 (GPR139; HEK-GPR139 cells): 0.375 µM
17 | 1.44 | 1.44 | 78.27 ± 16.46 | – | – | – | – | – | 0.31 | 1.14 | 2.62 | 2.62 | Cc1ccc(CC2CCC(CC(=O)CC3CCCCCCC3)C2=O)cc1 (stereo not shown) [SR-01000151470] | −9.17 ± 11.99 | > 14.1 | –
18 | 1.37 | 1.37 | 81.40 ± 9.66 | – | – | – | – | – | 0.30 | 1.06 | 2.28 | 2.28 | CCOC(=O)c1ccc(NC(=O)Cn2c(C)c(C=O)c3ccccc32)cc1 [SR-01000248261] | 19.46 ± 6.76 | – | EC50 (parental HEK cells; [3]): > 14.1 µM; EC50 (GPR139; HEK-GPR139 cells): 1.7 µM
19 | 3.10 | 3.10 | 107.14 ± 13.14 | 5.56 | 5.56 | 0.42 | 0.37 | 0.0489 | – | – | – | – | COc1ccc(C2(C)NC(=O)N(CC(=O)NCc3ccc(F)cc3)C2=O)cc1 (stereo not shown) [SR-01000918720] | 24.77 ± 3.77 | > 14.1 | –
